Measured values from US6066662A, “Hydroxylamine derivatives and their use as metalloproteinase inhibiting agents” (Hoffmann-La Roche Inc., priority 1994, dated 2000).

target: T1, collagenase (Homo sapiens, UniProt P03956); experiment: in vitro collagenase inhibiting activity (Test A); format: biochemical; conditions: collagenase from culture of human synovial fibroblasts, trypsin-activated; substrate 14C-acetylated collagen type I from rat tail tendons; microtitre plate assay
T1 construct: endogenous in cells; host or cells: culture of human synovial fibroblasts (conditioned medium)
T1 sequence (P03956 100-469): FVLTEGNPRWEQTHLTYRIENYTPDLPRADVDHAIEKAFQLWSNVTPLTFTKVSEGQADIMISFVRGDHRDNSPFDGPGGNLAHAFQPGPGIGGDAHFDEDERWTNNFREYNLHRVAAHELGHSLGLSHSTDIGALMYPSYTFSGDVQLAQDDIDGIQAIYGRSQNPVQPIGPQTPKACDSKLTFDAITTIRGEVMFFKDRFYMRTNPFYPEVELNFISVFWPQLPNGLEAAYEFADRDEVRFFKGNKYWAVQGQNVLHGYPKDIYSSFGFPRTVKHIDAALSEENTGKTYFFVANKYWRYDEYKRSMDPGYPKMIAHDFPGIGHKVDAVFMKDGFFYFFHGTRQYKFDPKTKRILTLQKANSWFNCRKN
Description: USA (1976), 73 945, following activation of the pro-collagenase in the conditioned medium by treatment with trypsin. Collagenase activity was measured using ^14 C-acetylated collagen type I from rat tail tendons as the substrate and employing the microtitre plate assay method of Johnson-Wint, B, Anal. Biochem. (1980), 104, 175. The IC50 is that concentration of a test compound in the enzyme digestion which reduces substrate cleavage and solubilization to 50% of that achieved by the enzyme alone.

| Structure (SMILES) | IC50 [nM] |
| --- | --- |
| CNC(=O)[C@@H](NC(=O)[C@H](CC1CC1)C(CN1C(=O)N(C)C(C)(C)C1=O)C(=O)NO)C(C)(C)C (single isomer, unassigned) [Example 4, N2-[3-cyclopropyl-2(R)-[1(R or S)-(hydroxycarbamoyl)-2-(3,4,4-trimethyl-2,5-dioxo-1-imidazolidinyl)ethyl]propionyl]-N1,3-dimethyl-L-valinamide] | 1 |
| CNC(=O)[C@@H](NC(=O)C(CC(=O)NO)CC1CC1)C(C)(C)C (single isomer, unassigned) [Example 2, N2-[3-cyclopropyl-2(R or S)-[(hydroxycarbamoyl)-methyl]propionyl]-N1,3-dimethyl-L-valinamide] | 7 |
| CNC(=O)[C@@H](NC(=O)[C@H](CC1CCC1)C(CN1C(=O)N(C)C(C)(C)C1=O)C(=O)NO)C(C)(C)C (single isomer, unassigned) [Example 5, N2-[3-cyclobutyl-2(R)-[1(R or S)-(hydroxycarbamoyl)-2-(3,4,4-trimethyl-2,5-dioxo-1-imidazolidinyl)ethyl]propionyl]-N1,3-dimethyl-L-valinamide] | 1 |
| CNC(=O)[C@@H](NC(=O)C(CC(=O)NO)CC1CCC1)C(C)(C)C (single isomer, unassigned) [Example 1, N2-[3-cyclobutyl-2(R or S)-[(hydroxycarbamoyl)-methyl]propionyl]-N1,3-dimethyl-L-valinamide] | 2 |
| CNC(=O)[C@@H](NC(=O)C(CC(=O)NO)CC1CCCC1)C(C)(C)C (single isomer, unassigned) [Example 3, N2-[3-cyclopentyl-2(R or S)-[(hydroxycarbamoyl)methyl]propionyl]-N1-3-dimethyl-L-valinamide] | 5 |
